Laboratory results: patent US9802927B2, “Oxadiazine compounds and methods of use thereof” (Denali Therapeutics, Inc., priority 2015, dated 2017)

Tested on: Aβ42
Test: In vitro cell screening assay in H4 cells expressing human APP751: Aβ42 by sandwich ELISA
Format: cell-based
Settings: Homo sapiens, compounds 0.003-10 μM, incubated overnight (16-18 h), sandwich ELISA of supernatant
Method: Human neuroglioma H4 cells were transfected with a pcDNA3.1 plasmid expressing human wild type APP751 cDNA and a stable cell line was generated using G418 selection. Cells were plated at 15,000 cells/well in Costar 96-well plates and placed at 37° C. and 5% CO2. Six hours after plating, cells were washed three times with Pro293™ chemically defined medium, followed by addition of compounds (0.003-10 μM, final DMSO concentration of 0.33%). Plates were incubated overnight (16-18 h) and supernatant was removed for quantification of Aβ peptides by sandwich ELISA. Cytotoxicity was evaluated using Cell-Titer 96W AQueous One Solution Cell Proliferation Assay according to the manufacturer's protocol.
Aβ peptide levels were quantified by sandwich ELISA. 96-well plates were coated with C-terminal specific Aβ antibodies recognizing either Aβ37, Aβ38, Aβ40, Aβ42, Aβ43 or a N-terminal specific Aβ antibody to detect Aβ 1-x. Plates were then blocked overnight at 4° C. with 1% bovine serum albumin (BSA) in PBS-T. Plates were washed and 100 μl of cultured cell supernatant or synthetic Aβ peptide standards and a detection antibody (4G8-HRP) were applied to the blocked plate and incubated overnight at 4° C. The next day, wells were washed before the addition of detection substrate (TMB peroxidase). Plates were then read for absorbance at 450 nm on a Molecular Devices SpectraMax M5e Microplate Reader.
Compound-treated samples were normalized to samples treated with DMSO alone (no inhibition) and to samples treated with DAPT. EC50 values were calculated from values reported as percent of DMSO controls using nonlinear regression, based on a sigmoidal dose response (variable slope) model. GraphPAD software from Prism used for calculation.

EC50	Structure (SMILES)
> 3000 nM	COc1nc(C2=NOCC(C)N2)ccc1-n1cnc(C)c1 (single isomer, unassigned; (+)) [Example 149A, (+)-3-(6-methoxy-5-(4-methyl-1H-imidazol-1-yl)pyridin-2-yl)-5-methyl-5,6-dihydro-4H-1,2,4-oxadiazine]

Same assay, conditions: compounds 0.003-10 μM, incubated overnight (16-18 h), sandwich ELISA of supernatant

EC50	Structure (SMILES)
94.5 nM	COc1nc(C2=NOCC(c3cn(C)c4ccc(C(F)(F)F)cc34)N2)ccc1-n1cnc(C)c1 (single isomer, unassigned; (-)) [Example 233A, (−)-3-(6-methoxy-5-(4-methyl-1H-imidazol-1-yl)pyridin-2-yl)-5-(1-methyl-5-(trifluoromethyl)-1H-indol-3-yl)-5,6-dihydro-4H-1,2,4-oxadiazine]
> 3000 nM	COc1nc(C2=NOCC(c3cc4cccc(C)c4o3)N2)ccc1-n1cnc(C)c1 (single isomer, unassigned) [Example 7A, 3-(6-Methoxy-5-(4-methyl-1H-imidazol-1-yl)pyridin-2-yl)-5-(7-methylbenzofuran-2-yl)-5,6-dihydro-4H-1,2,4-oxadiazine]
10.8 nM	COc1nc(C2=NOCC(c3cn(C)c4c(F)cccc34)N2)ccc1-n1cnc(C)c1 (single isomer, unassigned; (+)) [Example 231B, (+)-5-(7-fluoro-1-methyl-1H-indol-3-yl)-3-(6-methoxy-5-(4-methyl-1H-imidazol-1-yl)pyridin-2-yl)-5,6-dihydro-4H-1,2,4-oxadiazine]
9.5 nM	COc1nc(C2=NOCC(c3ccc(C(C)(C)C)cc3)N2)ccc1-n1cnc(C)c1 (single isomer, unassigned; (+)) [Example 235B, (+)-5-(4-(tert-butyl)phenyl)-3-(6-methoxy-5-(4-methyl-1H-imidazol-1-yl)pyridin-2-yl)-5,6-dihydro-4H-1,2,4-oxadiazine]
5.1 nM	COc1nc(C2=NOCC(c3nn(C)c4ccc(C(F)(F)F)cc34)N2)ccc1-n1cnc(C)c1 (single isomer, unassigned; (+)) [Example 241B, (+)-3-(6-methoxy-5-(4-methyl-1H-imidazol-1-yl)pyridin-2-yl)-5-(1-methyl-5-(trifluoromethyl)-1H-indazol-3-yl)-5,6-dihydro-4H-1,2,4-oxadiazine]
29.7 nM	COc1nc(C2=NOCC(c3cc4cc(F)ccc4o3)N2)ccc1-n1cnc(C)c1 (single isomer, unassigned; (+)) [Example 84B, (+)-5-(5-fluorobenzofuran-2-yl)-3-(6-methoxy-5-(4-methyl-1H-imidazol-1-yl)pyridin-2-yl)-5,6-dihydro-4H-1,2,4-oxadiazine]
> 3000 nM	COc1nc(C2=NOCC(C3CC(F)(F)C3)N2)ccc1-n1cnc(C)c1 (single isomer, unassigned; (-)) [Example 180A, (−)-5-(3,3-difluorocyclobutyl)-3-(6-methoxy-5-(4-methyl-1H-imidazol-1-yl)pyridin-2-yl)-5,6-dihydro-4H-1,2,4-oxadiazine]
33.7 nM	COc1nc(C2=NOCC(c3ccc(C(F)(F)F)cc3)N2)ccc1-n1cnc(C)c1 (single isomer, unassigned; (+)) [Example 59B, (+)-3-(6-methoxy-5-(4-methyl-1H-imidazol-1-yl)pyridin-2-yl)-5-(4-(trifluoromethyl)phenyl)-5,6-dihydro-4H-1,2,4-oxadiazine]
8.9 nM	COc1nc(C2=NOCC(c3cc4ccc(Cl)cc4o3)N2)ccc1-n1cnc(C)c1 (single isomer, unassigned; (+)) [Example 78B, (+)-5-(6-chlorobenzofuran-2-yl)-3-(6-methoxy-5-(4-methyl-1H-imidazol-1-yl)pyridin-2-yl)-5,6-dihydro-4H-1,2,4-oxadiazine]
4.8 nM	COc1nc(C2=NOCC(c3cc4ccc(C(F)(F)F)cc4o3)N2)ccc1-n1cnc(C)c1 (single isomer, unassigned; (+)) [Example 260B, (+)-3-(6-methoxy-5-(4-methyl-1H-imidazol-1-yl)pyridin-2-yl)-5-(6-(trifluoromethyl)benzofuran-2-yl)-5,6-dihydro-4H-1,2,4-oxadiazine]
